Measurements: patent publication US7119062B1, “Methods and compositions for improved articular surgery using collagen” (Neucoll, Inc., priority 2001, dated 2006)
Like-named read-outs stand apart in the source and are kept apart here.

Legend:
[1] = cited from earlier work
[2] = adults; cited from earlier work
[3] = cited from earlier work; remark: listed apart in the source
research monkeys = details: cited from earlier work
mice = details: cited from earlier work
[4] = standard mutagenicity and clastogenicity assays; cited from earlier work
[5] = Anesthetic effect of lidocaine in intra-articular collagen injections; format: in vivo; details: 1 mL intra-articular injections of collagen formulation with 0.3% lidocaine
[6] = in vivo

Compound: CCCCN1CCCCC1C(=O)Nc1c(C)cccc1C (stereo not shown) [bupivacaine]
- change in VAS pain scores at 1 hour ([1]; 12.5 mg intra-articular, knees of osteoarthritis patients, 1 hour post-administration): statistically significant (p=0.007) fall
- effect on VAS pain scores after 1 hour ([1]; 12.5 mg intra-articular, knees of osteoarthritis patients, after 1 hour): no significant effects
- duration of analgesia ([1]; intra-articular injection): 2 to 12 h
- intra-articular dose that produces analgesia of the joint ([1]; intra-articular): approximately 10 mg
- duration of pain relief ([1]; local anesthetic injected into the operated joint at the end of arthroscopy): about 6 hours
- half life [2]: approximately 3.5 hours
- maximum dose ([3]; over a 24 hour period): 400 mg
- therapeutic apparently safe dose ([3]; single bolus): approximately 225 mg
- single dose that produced seizures (research monkeys): 4.4 mg/kg
- LD50 (mice; intravenous): 6 to 8 mg/kg
- LD50 (mice; subcutaneous): 38 to 54 mg/kg

Compound: CCCCN1CCCC[C@H]1C(=O)Nc1c(C)cccc1C [levobupivacaine]
- genotoxicity [4]: non-genotoxic

Compound: CCN(CC)CC(=O)Nc1c(C)cccc1C [lidocaine]
- duration of anesthetic effects of lidocaine [5]: less than an hour
- duration of anesthetic effects of lidocaine, in most cases ([5]; in most cases): less than 10 minutes
- dosage required to achieve the same clinical efficacy as bupivacaine ([1]; equivalent indications, relative to bupivacaine): 2 to 10 times

Compound: collagen
- time collagen remains in the knee joints [6]: up to 8 weeks
